ChEMBL document CHEMBL1148158, “Antineoplastic Agents. 510. Isolation and structure of dolastatin 19 from the Gulf of California sea hare Dolabella auricularia” (2004)
≈ marks a conversion by molar mass, not a printed value.

Columns and labels:
[1] = system: MCF7; experiment: Growth inhibition of human MCF7 cells; assay type: functional
[2] = system: KM-20L2; experiment: Growth inhibition of human KM20L2 cells; assay type: functional

GI50 [1]: 0.72 µg/mL (≈ 1.14 µM)
Structure (SMILES): CO[C@@H]1[C@@H](O)[C@@H](OC)[C@H](O[C@@H]2C[C@]3(O)O[C@H](C[C@H](OC)/C=C(\C)C[C@@H](/C=C/C=C/Br)OC(=O)[C@H]3C)[C@H]2C)O[C@H]1C [DOLASTATIN 19]
GI50 [2]: 0.76 µg/mL (≈ 1.2 µM)
